Reference: US5225436A, “Aryl substituted naphthalene derivatives” (Schering Corporation, priority 1991, dated 1993)
Like-named read-outs stand apart in the source and are kept apart here.

Experiments:
5-lipoxygenase [1] = target: T1, 5-lipoxygenase (Mus musculus, UniProt P48999); assay: 5-Lipoxygenase assay (murine mast cell clone MC-9); type: cell-based; conditions: MC9, 5 min, MC-9 cell
T1 construct: The IL-3-dependent murine mast cell clone, MC-9, was used to test the effects; endogenous in cells; host or cells: MC-9 (IL-3-dependent murine mast cell clone)
T1 sequence (P48999 1-674): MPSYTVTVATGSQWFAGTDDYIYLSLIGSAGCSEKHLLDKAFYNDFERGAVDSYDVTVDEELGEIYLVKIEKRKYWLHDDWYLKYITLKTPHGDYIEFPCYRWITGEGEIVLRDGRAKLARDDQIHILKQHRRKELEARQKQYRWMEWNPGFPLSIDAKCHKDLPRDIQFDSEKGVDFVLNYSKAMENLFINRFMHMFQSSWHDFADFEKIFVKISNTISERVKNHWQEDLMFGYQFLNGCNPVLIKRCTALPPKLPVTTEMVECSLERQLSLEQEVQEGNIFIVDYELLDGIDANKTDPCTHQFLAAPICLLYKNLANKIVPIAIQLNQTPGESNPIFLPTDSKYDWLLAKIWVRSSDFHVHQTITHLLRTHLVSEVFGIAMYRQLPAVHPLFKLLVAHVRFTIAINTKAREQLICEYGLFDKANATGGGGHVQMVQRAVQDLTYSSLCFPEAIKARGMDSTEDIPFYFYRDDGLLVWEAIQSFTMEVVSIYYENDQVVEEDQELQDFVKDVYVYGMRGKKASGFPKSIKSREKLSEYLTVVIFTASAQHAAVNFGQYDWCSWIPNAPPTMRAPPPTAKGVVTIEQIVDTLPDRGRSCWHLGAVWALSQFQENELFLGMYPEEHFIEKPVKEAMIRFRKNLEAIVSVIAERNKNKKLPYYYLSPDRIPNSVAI
Experimental: The IL-3-dependent murine mast cell clone, MC-9, was used to test the effects of representative compounds of the invention on lipoxygenase activity. The MC-9 cell line was grown in suspension culture (0.4 to 1.2×10^6 cells/ml) in RPMI 1640 medium (Gibco) with 10% fetal bovine serum (Hyclone) and 2-5% conconavalin-A conditioned supernatant (Musch et. al., (1985) Prostagandins 29, 405-4307. Cells were harvested, washed twice by centrifugation, and resuspended in a Ca^++ -free HEPES buffer (25 mM HEPES, 125 mM NaCl, 2.5 mM KCl 0.7 mM MgCl2, 0.5 mM EGTA and 10 mM glucose at pH 7.4).
MC-9 cells (0.39 ml at 7.5×10^6 cells/ml) were preincubated with dimethylsulfoxide (DMSO) vehicle with or without test compound (1 ul) for 4 minutes then incubated for 5 minutes with [^14 C] arachidonic acid (Amersham, 59 Ci/mole) at a 9 uM final concentration, and A23187 (Calbiochem) at a 1 uM final concentration was added in 10 ul of water:ethanol (9:1). The reaction was stopped by addition of methanol (0.4 ml), and cellular debris was removed by centrifugation. Aliquots (250 ul) of the incubations were run on a Waters two pump HPLC system fitted with a Waters C18, 10 u 8×100 mm u-Bondapak radial compression column and C18 "Guard Pak". The column was initially eluted at 3 ml/min with water:methanol:acetic acid (67:33:0.08) containing 1 mM EDTA adjusted to pH 6.0 with ammonium hydroxide (Pump A). At 4 minutes, a linear gradient to reach 100% methanol (Pump B) at 9 minutes was established. Between 13 and 14 minutes, methanol was exchanged for the initial eluting solvent and by 19 minutes the column had been reequilibrated for the next sample. The effluent was analyzed by a continuous flow radioactivity monitor (model ROMONA-D) interfaced with a Hewlett Packard Lab Automation System for quantitation of radioactive products. These were predominantly leukotriene C4 (LTC4) which eluted at 6 minutes, and 5-hydroxyeicosatetraenoic acid (5-HETE) which eluted at 11 minutes (Musch et. al., supra).

[2] = test system: SRS-A / leukotriene release from antigen-challenged, sensitized guinea pig lung; assay: Inhibition of SRS-A (leukotriene) release from antigen-challenged, sensitized guinea pig lung; type: cell-based; set-up: inhibition: dose or concentration left out as unconfirmed; conditions: Cavia porcellus
From the text: The anti-allergy method of this invention is identified by tests which measure a compound's inhibition of leukotriene release in sensitized guinea pigs. Sensitized guinea pigs are killed by a blow to the head and the lungs removed and cleaned of visible connective tissue, trachea and large blood vessels. The lungs from individual animals are sliced into fragments approximately 1 mm in thickness using a McIlwain tissue chopper and then washed with oxygenated Tyrode's buffer. Weighed aliquots (approximately 400 mg wet weight) of lung are transferred into vials containing 2 ml of fresh Tyrode's solution (containing 10 mM cysteine) and incubated in the presence or absence of test compound for 12 min at 37° C. The tissues are then challenged with 20 μg ovalbumin/ml (final concentration) and incubated for 15 min. To measure leukotriene release, an aliquot of supernatant fluid is extracted with 4 volumes of 100% ethanol. After removal of the precipitated protein, the clear fluid is dried under a stream of N2 gas. The leukotriene content is measured by a radioimmunoassay using [^3 H]LTC4 and antiserum obtained from New England Nuclear. The cross-reactivity of the antiserum for LTD4 is 55%. Percent inhibition of lekotriene release is calculated by comparing for each lung the release in the presence of the test compound to that in the absence of test compound. Representative compounds of the invention at a relative dose of 50 μM of tissue are found to inhibit leukotriene release in the test procedure as indicated below in Table 1: […]

5-lipoxygenase [3] = target: T2, 5-lipoxygenase (Homo sapiens, UniProt P09917); assay: 5-Lipoxygenase assay with human neutrophils; type: cell-based; conditions: 5 min, Human PMN, dose 15 μm (μM)
T2 construct: Human polymorphonuclear leukocytes (neutrophils) were obtained from normal healthy volunteers; endogenous in cells; host or cells: human blood neutrophils from healthy volunteers
T2 sequence (P09917 1-674): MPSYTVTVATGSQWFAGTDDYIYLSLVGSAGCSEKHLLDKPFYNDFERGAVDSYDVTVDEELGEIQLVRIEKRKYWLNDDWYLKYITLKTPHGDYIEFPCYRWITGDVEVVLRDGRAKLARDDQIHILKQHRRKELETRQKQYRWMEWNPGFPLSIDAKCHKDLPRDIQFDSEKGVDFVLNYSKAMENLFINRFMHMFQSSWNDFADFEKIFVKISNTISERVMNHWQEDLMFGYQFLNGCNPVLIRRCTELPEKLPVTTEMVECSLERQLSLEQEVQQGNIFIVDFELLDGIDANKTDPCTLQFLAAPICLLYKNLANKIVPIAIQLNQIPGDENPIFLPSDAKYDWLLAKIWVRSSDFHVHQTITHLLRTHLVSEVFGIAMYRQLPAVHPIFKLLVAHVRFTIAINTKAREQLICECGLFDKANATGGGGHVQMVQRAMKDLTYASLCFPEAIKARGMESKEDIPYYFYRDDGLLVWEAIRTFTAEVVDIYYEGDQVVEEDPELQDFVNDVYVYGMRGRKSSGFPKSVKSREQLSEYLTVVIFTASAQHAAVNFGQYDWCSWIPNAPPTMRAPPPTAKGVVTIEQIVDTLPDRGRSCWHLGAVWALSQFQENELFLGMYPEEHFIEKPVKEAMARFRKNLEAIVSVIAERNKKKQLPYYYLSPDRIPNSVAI
Experimental: Human polymorphonuclear leukocytes (neutrophils) were obtained from normal healthy volunteers by venipuncture and collected with heparin anticoagulant. Neutrophils were isolated by Dextran/Ficol sedimentation as described (Billah et al., J. Biol. Chem. 260, 6899-6906 (1985)). In brief, 30 ml of blood was mixed with 5 ml of dextran (Sigma) solution and kept at 37° C. for 30 min. The upper white cell-rich layer was removed and 10 ml was layered on 9 ml of Ficol-Paque solution (Pharmacia) and centrifuged at 280 xg for 10 min. at 5° C. The supernatant was removed and the neutrophil pellet was resuspended in HEPES buffer containing 25 mM N-2-hydroxyethylpiperazine-N^1 -2-ethanesulfonic acid HEPES, 125 mM NaCl, 2.5 mM KCl, 0.7 mM MgCl2, […] 10 mM glucose at pH 7.4. The red cells in the suspension were lysed by hypotonic shock. The neutrophils were washed by centrifugation in HEPES buffer two times and finally resuspended at a concentration of 20×10^6 cells/ml in the presence of 1 mM CaCl2.
Neutrophils (0.2 ml of suspension) were preincubated with dimethylsulfoxide (DMSO) vehicle with or without test compound (1 ul) for 4 minutes then incubated for 5 minutes with [^14 C] arachidonic acid (Amersham, 59 Ci/mole) at a 9 uM final concentration, and the calcium ionophore A23187 (Calbiochem) at a 1 uM final concentration. These stimulants were added in 10 ul of water:ethanol (9:1). The reaction was stopped by addition of methanol (0.4 ml), and cellular debris was removed by centrifugation. Aliquots (100 ul) of the incubations were run on a Waters two pump HPLC system fitted with a DuPont Zorbax ODS, 5u, […] Reliance Cartridge column and C18 "Guard Pak". The column was initially eluted at 2 ml/min with 80% of the mixture water:methanol:acetic acid (46:54:0.08) containing 1 mM EDTA adjusted to pH 6.0 with ammonium hydroxide (Pump A) and 20% methanol (Pump B). At 10 minutes, a linear gradient to reach 100% methanol (Pump B) at 27 minutes was established. Between 27 and 28 minutes, methanol was exchanged for the initial eluting solvent and by 35 minutes the column had been reequilibrated for the next sample. The effluent was analyzed by a continuous flow radioactivity monitor (model ROMONA-D) interfaced with a Hewlett Packard Lab Automation System for quantitation of radioactive products. These were predominantly leukotriene B4 (LTB4) which eluted at 7 minutes, and 5-hydroxyeicosatetraenoic acid (5-HETE) which eluted at 20 minutes.

[4] = test system: anaphylactic bronchospasm (antigen-induced SRS-A mediated bronchoconstriction); assay: Inhibition of anaphylactic bronchospasm in sensitized guinea pigs; type: in vivo, guinea pig; conditions: Cavia porcellus, iv, 0.25 h; for inhibition in vivo at 10 mg/kg: read-out: % Inhibition of anaphylactic bronchospasm
Experimental: The anti-allergy method of this invention is identified by tests which measure a compound's inhibition of anaphylactic bronchospams-in sensitized guinea pigs having antigen-induced SRS-A mediated bronchoconstriction. Allergic bronchospams was measured in actively sensitized guinea pigs by a modification of the procedure of Konzett and Rossler, Arch. Exptl. Pathol. Pharmakol., 194, pp. 71-74 (1940). Male Hartley guinea pigs were sensitized with 5 mg ovalbumin injected ip and 5 mg injected sc in 1 ml saline on day 1 and 5 mg ovalbumin injected ip on day 4. The sensitized animals were used 3-4 weeks later. To measure anaphylactic bronchospasm, sensitized guinea pigs were fasted overnight and the following morning were anesthetized with 0.9 ml/kp ip dialurethane. The trachea and jugular vein were cannulated and the animals were ventilated by a Harvard rodent respirator. A side arm to the tracheal cannula was connected to a Harvard pressure transducer to obtain a continuous measure of intratracheal pressure. An increase in intratracheal pressure was taken as a measure of bronchoconstriction. Each guinea pig was injected iv with 1 mg/kg propranolol, 5 mg/kg indomethacin and 2 mg/kg mepyramine given together in a volume of […]. Fifteen minutes later, the animals were challenged with antigen (0.5 percent ovalbumin) delivered as an aerosol generated from a DeVilbiss Model 65 ultrasonic nebulizer and delivered through the tracheal cannula for 30 seconds. Bronchoconstriction was measured as the peak increase in intratracheal pressure occurring within 15 minutes after antigen challenge.

COc1cc(OC)c2c(c1)C(C)(C)C(c1ccc(OC)c(OC)c1)CC2 (centres unmarked)
inhibition at 5 µM (5-lipoxygenase [1]; read-out: % Inhibition 5-HETE): 35%
inhibition at 5 µM (5-lipoxygenase [1]; read-out: % Inhibition LTC4): 53%
inhibition at 50 µM [2]: 5%

CC1(C)c2cc(O)cc(O)c2CCC1c1ccc(O)c(O)c1 (centres unmarked)
inhibition at 5 µM (5-lipoxygenase [1]; read-out: % Inhibition 5-HETE): 55%
inhibition at 5 µM (5-lipoxygenase [1]; read-out: % Inhibition LTC4): 52%
inhibition at 10 µM [2]: 16%

COc1cc(OC)c2c(c1)C(C)(C)C(c1ccc(OC)c(OC)c1)CC2=NNC(N)=O (centres unmarked)
inhibition at 15 µM (5-lipoxygenase [3]; read-out: % Inhibition 5-HETE): 2%
inhibition at 15 µM (5-lipoxygenase [3]; read-out: % Inhibition LTB): 0%
inhibition at 10 µM [2]: 1%
inhibition in vivo at 10 mg/kg ([4]; Dose 10 mpk): 20%

COc1cc(OC)c2c(c1)C(C)(C)C(c1ccc(OC)c(OC)c1)=CC2=NO
inhibition at 15 µM (5-lipoxygenase [3]; read-out: % Inhibition 5-HETE): 0%
inhibition at 15 µM (5-lipoxygenase [3]; read-out: % Inhibition LTB): 9%
inhibition ([2]; Dose 30 μm (μM)): 0%
inhibition in vivo at 10 mg/kg ([4]; Dose 10 mpk): 0%

COc1cc(OC)c2c(c1)C(C)(C)C(c1ccc(OC)c(OC)c1)=C(C)C2=O
inhibition at 15 µM (5-lipoxygenase [3]; read-out: % Inhibition 5-HETE): 1%
inhibition at 15 µM (5-lipoxygenase [3]; read-out: % Inhibition LTB): 0%
inhibition at 10 µM [2]: 20%
inhibition in vivo at 10 mg/kg ([4]; Dose 10 mpk): 24%

CCOc1cc(OC)cc2c1C(=NO)CC(c1ccc(OC)c(OC)c1)C2(C)C (centres unmarked)
inhibition in vivo at 3 mg/kg ([4]; Dose 3 mpk): 25%

COc1cc(O)c2c(c1)C(C)(C)C(c1ccc(OC)c(OC)c1)CC2=NO (centres unmarked)
inhibition at 15 µM (5-lipoxygenase [3]; read-out: % Inhibition 5-HETE): 42%
inhibition in vivo at 10 mg/kg ([4]; Dose 10 mpk): 0%

COc1cc(OC)c2c(c1)C(C)(C)C(c1ccc(OC)c(OC)c1)CC2=NOC(=O)C(C)(C)C (centres unmarked)
inhibition in vivo at 10 mg/kg ([4]; Dose 10 mpk): 20%

CN(C)C(=O)Oc1cc(OC(=O)N(C)C)c2c(c1)C(C)(C)C(c1ccc(OC(=O)N(C)C)c(OC(=O)N(C)C)c1)=CC2=O
inhibition in vivo at 10 mg/kg [4]: 10%

COc1cc(OC)c2c(c1)C(C)(C)C(c1ccc(OC)c(OC)c1)CC2(C)O (centres unmarked)
inhibition at 5 µM (5-lipoxygenase [1]; read-out: % Inhibition 5-HETE): 0%
inhibition at 5 µM (5-lipoxygenase [1]; read-out: % Inhibition LTC4): 8%

COc1cc(OC)c2c(c1)C(C)(C)C(c1ccc(OC)c(OC)c1)CC2O (centres unmarked)
inhibition at 5 µM (5-lipoxygenase [1]; read-out: % Inhibition 5-HETE): 5%
inhibition at 5 µM (5-lipoxygenase [1]; read-out: % Inhibition LTC4): 32%

CC1(C)c2cc(O)cc(O)c2C(=O)CC1c1ccc(O)c(O)c1 (centres unmarked) [drawing 79 [R3/R4=O; E,G,P,L=OH; J=H; db no]]
inhibition at 2 µM (5-lipoxygenase [1]; dose 2 μm, read-out: % Inhibition 5-HETE): 0%
inhibition at 50 µM [2]: 67%
